Values of other authors as cited in patent US20190000853A1, “ANTIVIRAL 4-(2-AMINO-6-HETEROCYLYL-9H-PURIN-9-YL)-2-CYCLOPENTENE-1 -METHANOL COMPOUNDS” (THE UNIVERSITY OF LIVERPOOL, priority 2015, published 2019).

Test system: HIV-1
Conditions: literature comparison with Abacavir

Nc1nc(N2CCC2)c2ncn([C@H]3C=C[C@@H](CO)C3)c2n1 [ABC1-4]
Antiviral potency relative to Abacavir: equipotent to Abacavir
